# Patent US5962682A, “Aryl- and hetaryl-sulfonamide derivatives, their preparation and their use as endothelin antagonists” (Hoffmann-La Roche Inc., priority 1994, dated 1999)
# Key:
# [1] = target: T1, ETB receptor (Homo sapiens, UniProt P24530); test: Inhibition of Endothelin Binding to Human Placenta Membranes (ETB receptor); settings: inhibition of 50% of the specific binding of 125I-endothelin (20 pM)
# T1 construct: Human placenta is homogenized in 5 mM Tris buffer; from tissue; host or cells: human placenta membranes
# T1 sequence (P24530 27-442): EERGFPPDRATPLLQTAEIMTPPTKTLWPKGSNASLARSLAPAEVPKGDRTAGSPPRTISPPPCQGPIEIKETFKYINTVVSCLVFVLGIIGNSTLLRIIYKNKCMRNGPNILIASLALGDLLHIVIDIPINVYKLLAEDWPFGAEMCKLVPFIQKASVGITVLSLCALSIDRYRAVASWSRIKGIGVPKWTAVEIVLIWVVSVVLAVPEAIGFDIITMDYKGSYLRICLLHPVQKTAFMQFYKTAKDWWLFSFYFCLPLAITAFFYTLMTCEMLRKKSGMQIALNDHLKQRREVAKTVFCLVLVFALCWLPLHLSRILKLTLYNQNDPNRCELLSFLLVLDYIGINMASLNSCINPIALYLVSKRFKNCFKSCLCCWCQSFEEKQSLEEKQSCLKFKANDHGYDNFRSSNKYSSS
# Protocol: II: Inhibition of Endothelin Binding to Human Placenta Membranes (ETB receptor) (see. Life Sci 44:1429 (1989))
# Human placenta is homogenized in 5 mM Tris buffer, pH 7.4, which contains 1 mM MgCl2 and 250 mM sucrose. The homogenizate is centrifuged at 4° C. and 3000 g for 15 minutes, the supernatant containing the plasma membrane fraction is centrifuged at 72000 g for 30 minutes and the precipitate is washed with 75 mM Tris buffer, pH 7.4, which contains 25 mM MgCl2. Thereafter, precipitate obtained from in each case 10 g of original tissue is suspended in 1 ml of 75 mM Tris buffer, pH 7.4, containing 25 mM MgCl2 and 250 mM sucrose, and freeze-dried at -20° C. in 1 ml aliquots.
# (§1) For the binding assay, the freeze-dried membrane preparations are thawed and, after centrifugation at 20° C. and 25000 g for 10 minutes, re-suspended in assay buffer (50 mM Tris buffer, pH 7.4, containing 25 mM MnCl2, 1 mM EDTA and 0.5% bovine serum albumin). 100 μl of this membrane suspension containing 35 μg of protein are incubated with […] ^125 I-endothelin (specific activity 2200 Ci/mMol) in assay buffer (25000 cpm, final concentration 20 pM) and 100 μl of assay buffer containing varying concentrations of test compound. The incubation is carried out at 20° C. for 2 hours or at 4° C. for 24 hours. The separation of free and membrane-bound radio-ligands is carried out by filtration over a glass fibre filter.
# (§2) The inhibitory activity on ETA and ETB receptors of compounds of formula I determined in these test procedures is given in Table 1 as the IC50, i.e. as the concentration [μM] which is required to inhibit 50% of the specific binding of ^125 I-endothelin.
# [2] = target: T2, human ETA receptors (Homo sapiens, UniProt P25101); test: Inhibition of Endothelin Binding to Recombinant ETA Receptors; settings: inhibition of 50% of the specific binding of 125I-endothelin (20 pM), baculovirus-insect cell membranes
# T2 construct: made in house
# T2 sequence (P25101 21-427): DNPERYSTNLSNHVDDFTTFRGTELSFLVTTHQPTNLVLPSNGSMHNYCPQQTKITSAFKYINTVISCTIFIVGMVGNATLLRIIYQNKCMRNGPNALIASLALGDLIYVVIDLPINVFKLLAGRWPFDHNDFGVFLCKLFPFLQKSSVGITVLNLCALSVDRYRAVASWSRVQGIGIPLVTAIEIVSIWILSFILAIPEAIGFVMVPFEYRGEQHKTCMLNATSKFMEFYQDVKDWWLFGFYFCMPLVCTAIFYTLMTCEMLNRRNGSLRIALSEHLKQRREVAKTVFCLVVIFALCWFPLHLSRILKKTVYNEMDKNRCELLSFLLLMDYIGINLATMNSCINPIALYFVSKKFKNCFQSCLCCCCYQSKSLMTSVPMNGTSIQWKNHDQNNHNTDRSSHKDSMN
# Protocol: I: Inhibition of Endothelin Binding to Recombinant ETA Receptors
# A cDNA coding for human ETA receptors of human placenta was cloned (M. Adachi, Y.-Y. Yang, Y. Furuichi and C. Miyamoto, BBRC 180, 1265-1272) and expressed in the baculovirus-insect cell system. Baculovirus-infected insect cells from a 23 l fermenter are centrifuged off (3000×g, 15 minutes, 4° C.) 60 hours after the infection, re-suspended in Tris buffer (5 mM, pH 7.4, 1 mM MgCl2) and again centrifuged. After a further re-suspension and centrifugation the cells are suspended in 800 ml of the same buffer and […] at -120° C. The cells disintegrate when the suspension in this hypotonic buffer mixture is thawed. After a repeated freeze-drying/thawing cycle the suspension is homogenized and centrifuged (25000×g, 15 minutes, 4° C.). After suspension in Tris buffer (75 mM, pH 7.4, 25 mM MgCl2, 250 mM saccharose) 1 ml aliquots (protein content about 3.5 mg/ml) are stored at -85° C.
# as §1, with “5” for “35”, “with 50” for “with”
# as §2
# [3] = tested on: Isolated Rat Aorta Rings; test: Inhibition of Endothelin-Induced Contractions in Isolated Rat Aorta Rings; format: cell-based, rat (Wistar-Kyoto); settings: for Kb: Rattus norvegicus, Table 2, text calls these the pA2 values, endothelin-1 contraction, endothelium removed, 37° C, 10 min preincubation, read-out: Dosage ratio (switch to the right) (converted)
# Protocol: III. Inhibition of Endothelin-Induced Contractions in Isolated Rat Aorta Rings
# Rings with a length of 5 mm were cut out from the thorax aorta of adult Wistar-Kyoto rats. The endothelium was removed by lightly rubbing the internal surface. Each ring was immersed at 37° C. in 10 ml of Krebs-Henseleit solution in an isolated bath while gassing with 95% O2 and 5% CO2. The isometric stretching of the rings was measured. The rings were stretched to a pretension of 3 g. After incubation for 10 minutes with the test compound or vehicle cumulative dosages of endothelin-1 were added. The activity of the test compound was ascertained by the observed shift to the right of the dosage-activity curve of endothelin-1 in the presence of different concentrations of antagonist. This shift to the right (or "dose ratio", DR) corresponds to the quotient from the EC50 values of endothelin-1 in the presence and in the absence of antagonist, with the EC50 value denoting the endothelin concentration required for a half-maximum contraction.
# The corresponding PA2 value, which is a measure of the activity of the test compound, was calculated using a computer programme according to the following equation from the "dose ratio" DR for each individual dosage-activity curve.
# pA2 =log(DR-1)-log(antagonist-concentration)
# The EC50 of endothelin in the absence of test compounds is 0.3 nM.
IC50 [1] [nM],IC50 [2] [nM],Compound,Kb [3] [nM],"EC50 ([3]; half-maximum contraction, absence of test compounds) [nM]"
650,2,"CCOC(=O)N1CCN(C(=O)c2cc(NS(=O)(=O)c3ccc(C(C)C)cn3)c(Oc3ccccc3OC)c(OCCOC(=O)Nc3ccccn3)c2)CC1 [Example 36, ethyl 4-{3-(5-iso-propyl-pyridine-2-sulphonylamino)-4-(2-methoxy-phenoxy)-5-[2-(pyridin-2-ylcarbamoyloxy)-ethoxy]-benzoyl}-piperazine-1-carboxylate]",6.31,–
20,86000,"COc1ccc(Cl)c(Oc2c(NS(=O)(=O)c3ccc(C(F)(F)F)cc3)cc(C(=O)Nc3ccccc3)cc2OCCO)c1 [Example 85, 4-(2-chloro-5-methoxy-phenoxy)-3-(2-hydroxy-ethoxy)-N-phenyl-5-(4-trifluoromethyl-benzenesulphonylamino)-benzamide]",–,–
65,> 100000,"COc1cccc(Oc2c(NS(=O)(=O)c3ccc(C(C)(C)C)cc3)cc(C(=O)Nc3ccccc3)cc2OCCO)c1 [Example 89, 3-(4-tert-butylbenzenesulphonylamino)-5-(2-hydroxy-ethoxy)-4-(3-methoxy-phenoxy)-N-phenyl-benzamide]",–,–
15,> 100000,"COc1cccc(Oc2c(NS(=O)(=O)c3ccc(SC)cc3)cc(C(=O)Nc3ccccc3)cc2OCCO)c1 [Example 105, 3-(2-hydroxy-ethoxy)-4-(3-methoxy-phenoxy)-5-(4-methylsulphanyl-benzenesulphonyl-amino)-N-phenyl-benzamide]",–,–
–,–,"endothelin: endothelin-1, contracting agonist added in cumulative dosages to rat aorta rings [reference compound]",–,0.3
440,10,"COc1ccccc1Oc1c(NS(=O)(=O)c2ccc(C(C)C)cn2)cc(C(=O)N2CCN(C)CC2)cc1OCCOC(=O)Nc1ccccn1 [Example 33, pyridin-2-yl-carbamic acid 2-[3-(5-isopropyl-pyridine-2-sulphonylamino)-2-(2-methoxy-phenoxy)-5-(4-methyl-piperazine-1-carbonyl)-phenoxy]-ethyl ester]",39.8,–
850,6,"COc1ccccc1Oc1c(NS(=O)(=O)c2ccc(C(C)C)cn2)cc(C(=O)N2CCOCC2)cc1OCCOC(=O)Nc1ccccn1 [Example 31, pyridin-2-yl-carbamicacid 2-[3-(5-isopropyl-pyridine-2-sulphonylamino)-2-(2-methoxy-phenoxy)-5(morpholine-4-carbonyl)-phenoxy]-ethyl ester]",–,–
